Laboratory results taken from the NIST ThermoML archive (doi:10.1021/je800497u).

Legend:
[1] = 101 kPa, Liquid
[2] = xn = mol fraction of the nth substance listed; conditions: 101 kPa, Liquid

CCCCCCCCCCCO [1-undecanol]
[1]
Conditions	mass density [kg/m3]	viscosity [mPa·s]
293.15 K	832.5	17.18
298.15 K	829	14.02

CCCCCCCCCCCO [1-undecanol] + CCCCCCCCCO
[2]
Conditions	mass density, 293.15 K [kg/m3]	mass density, 298.15 K [kg/m3]	viscosity, 293.15 K [mPa·s]	viscosity, 298.15 K [mPa·s]
x2 = 0	832.5	829	17.18	14.02
x2 = 0.1177	831.4	827.9	16.86	13.84
x2 = 0.248	830.8	827.4	16.21	13.3
x2 = 0.3116	830.5	827.1	15.57	12.72
x2 = 0.4007	830.2	826.8	15.49	12.68
x2 = 0.5017	829.8	826.4	14.66	12.03
x2 = 0.6004	829.4	826	13.83	11.33
x2 = 0.6921	829	825.6	13.5	11.12
x2 = 0.7943	828.6	825.2	12.79	10.55
x2 = 0.8915	828.1	824.7	12.06	9.982

CCCCCCCCCCCO [1-undecanol] + CCCCCCCO
[2]
Conditions	mass density, 293.15 K [kg/m3]	mass density, 298.15 K [kg/m3]	viscosity, 293.15 K [mPa·s]	viscosity, 298.15 K [mPa·s]
x2 = 0	832.5	829	17.18	14.02
x2 = 0.1245	830.7	827.3	16.37	13.36
x2 = 0.2254	830	826.6	14.96	12.26
x2 = 0.2988	829.4	826	13.79	11.3
x2 = 0.4142	828.4	825	12.93	10.66
x2 = 0.5086	827.6	824.2	11.83	9.79
x2 = 0.5895	826.8	823.4	10.82	8.971
x2 = 0.6993	825.7	822.3	9.924	8.253
x2 = 0.7866	824.8	821.3	8.997	7.511
x2 = 0.8888	823.6	820.2	8.005	6.711

CCCCCCCCCCCO [1-undecanol] + CCCCCO
[2]
Conditions	mass density, 293.15 K [kg/m3]	mass density, 298.15 K [kg/m3]	viscosity, 293.15 K [mPa·s]	viscosity, 298.15 K [mPa·s]
x2 = 0	832.5	829	17.18	14.02
x2 = 0.1218	830.3	826.9	15.92	13.04
x2 = 0.2312	829.1	825.7	13.84	11.4
x2 = 0.3167	828	824.6	12.28	10.14
x2 = 0.4002	826.9	823.5	11.17	9.277
x2 = 0.5076	825.2	821.8	9.516	7.956
x2 = 0.6003	823.7	820.3	8.205	6.902
x2 = 0.6977	822	818.5	6.943	5.846
x2 = 0.7982	819.8	816.3	5.804	4.908
x2 = 0.8954	817.5	813.9	4.87	4.16

CCCCCCCCCCCO [1-undecanol] + CCCO
[2]
Conditions	mass density, 293.15 K [kg/m3]	mass density, 298.15 K [kg/m3]	viscosity, 293.15 K [mPa·s]	viscosity, 298.15 K [mPa·s]
x2 = 0	832.5	829	17.18	14.02
x2 = 0.1283	830.7	827.3	15.08	12.37
x2 = 0.2079	829.6	826.2	13.44	11.11
x2 = 0.3145	827.9	824.4	11.56	9.558
x2 = 0.4057	826.1	822.6	10.06	8.394
x2 = 0.5075	824	820.5	8.321	6.998
x2 = 0.6096	821.3	817.7	6.814	5.804
x2 = 0.6937	818.7	815.1	5.634	4.823
x2 = 0.7922	815	811.4	4.399	3.808
x2 = 0.8907	810.3	806.5	3.274	2.857

CCCCCCCO [heptan-1-ol] + CCCCCCCCCCCO
[2], x1 = 1
Conditions	mass density [kg/m3]	viscosity [mPa·s]
293.15 K	822.2	7.104
298.15 K	818.7	5.993

CCCCCCCO [heptan-1-ol] + CCCCCCCCCO
[2], x1 = 1
Conditions	mass density [kg/m3]	viscosity [mPa·s]
293.15 K	822.2	7.104
298.15 K	818.7	5.993

CCCCCCCO [heptan-1-ol] + CCCCCO
[2]
Conditions	mass density, 293.15 K [kg/m3]	mass density, 298.15 K [kg/m3]	viscosity, 293.15 K [mPa·s]	viscosity, 298.15 K [mPa·s]
x2 = 0	822.2	818.7	7.104	5.993
x2 = 0.123	821.4	818	6.696	5.692
x2 = 0.2117	820.8	817.4	6.374	5.408
x2 = 0.3131	820.2	816.7	6.079	5.158
x2 = 0.4177	819.4	815.9	5.758	4.899
x2 = 0.5088	818.8	815.3	5.421	4.652
x2 = 0.5897	818.2	814.7	5.177	4.431
x2 = 0.6996	817.3	813.8	4.887	4.189
x2 = 0.7885	816.5	812.9	4.651	3.997
x2 = 0.8909	815.6	812	4.287	3.717

CCCCCCCO [heptan-1-ol] + CCCO
[2]
Conditions	mass density, 293.15 K [kg/m3]	mass density, 298.15 K [kg/m3]	viscosity, 293.15 K [mPa·s]	viscosity, 298.15 K [mPa·s]
x2 = 0	822.2	818.7	7.104	5.993
x2 = 0.09	821.2	817.7	6.596	5.614
x2 = 0.1795	820.2	816.7	6.08	5.158
x2 = 0.3279	818.2	814.6	5.288	4.519
x2 = 0.4103	816.9	813.3	4.862	4.174
x2 = 0.5058	815.3	811.7	4.282	3.714
x2 = 0.6106	813.5	809.8	3.825	3.342
x2 = 0.6991	811.6	807.9	3.443	3.009
x2 = 0.7989	809.3	805.6	3.011	2.634
x2 = 0.8882	807	803.2	2.643	2.34

CCCCCCCCCO [nonan-1-ol] + CCCCCCCCCCCO
[2], x1 = 1
Conditions	mass density [kg/m3]	viscosity [mPa·s]
293.15 K	827.9	11.68
298.15 K	824.4	9.671

CCCCCCCCCO [nonan-1-ol] + CCCCCCCO
[2]
Conditions	mass density, 293.15 K [kg/m3]	mass density, 298.15 K [kg/m3]	viscosity, 293.15 K [mPa·s]	viscosity, 298.15 K [mPa·s]
x2 = 0	827.9	824.4	11.68	9.671
x2 = 0.1181	827	823.6	11.16	9.249
x2 = 0.2245	826.6	823.2	10.56	8.777
x2 = 0.307	826.2	822.8	10.02	8.328
x2 = 0.4093	825.7	822.3	9.551	7.951
x2 = 0.5045	825.1	821.7	9.146	7.628
x2 = 0.5969	824.7	821.2	8.61	7.211
x2 = 0.6924	824.2	820.7	8.347	6.976
x2 = 0.7866	823.6	820.2	7.968	6.662
x2 = 0.8883	823	819.5	7.439	6.266

CCCCCCCCCO [nonan-1-ol] + CCCCCO
[2]
Conditions	mass density, 293.15 K [kg/m3]	mass density, 298.15 K [kg/m3]	viscosity, 293.15 K [mPa·s]	viscosity, 298.15 K [mPa·s]
x2 = 0	827.9	824.4	11.68	9.671
x2 = 0.1155	826.6	823.1	10.72	8.891
x2 = 0.2155	825.6	822.2	9.71	8.083
x2 = 0.3161	824.5	821.1	8.734	7.313
x2 = 0.4052	823.6	820.1	8.071	6.815
x2 = 0.5066	822.4	818.9	7.27	6.128
x2 = 0.6079	821	817.5	6.582	5.55
x2 = 0.7036	819.6	816.1	5.898	5.017
x2 = 0.7935	818.2	814.7	5.192	4.473
x2 = 0.8913	816.6	813	4.631	3.976

CCCCCCCCCO [nonan-1-ol] + CCCO
[2]
Conditions	mass density, 293.15 K [kg/m3]	mass density, 298.15 K [kg/m3]	viscosity, 293.15 K [mPa·s]	viscosity, 298.15 K [mPa·s]
x2 = 0	827.9	824.4	11.68	9.671
x2 = 0.0808	826.5	823.1	10.86	9.007
x2 = 0.2286	824.6	821.2	9.037	7.55
x2 = 0.3296	823.1	819.6	7.921	6.701
x2 = 0.4104	821.7	818.2	7.097	6.002
x2 = 0.5176	819.5	816	6.051	5.147
x2 = 0.6051	817.6	814	5.268	4.513
x2 = 0.6801	815.5	811.9	4.501	3.904
x2 = 0.7961	811.9	808.3	3.583	3.129
x2 = 0.8945	808.3	804.5	2.9	2.554

CCCCCO [pentan-1-ol] + CCCCCCCCCCCO
[2], x1 = 1
Conditions	mass density [kg/m3]	viscosity [mPa·s]
293.15 K	814.6	4.029
298.15 K	811	3.494

CCCCCO [pentan-1-ol] + CCCCCCCCCO
[2], x1 = 1
Conditions	mass density [kg/m3]	viscosity [mPa·s]
293.15 K	814.6	4.029
298.15 K	811	3.494

CCCCCO [pentan-1-ol] + CCCCCCCO
[2], x1 = 1
Conditions	mass density [kg/m3]	viscosity [mPa·s]
293.15 K	814.6	4.029
298.15 K	811	3.494

CCCCCO [pentan-1-ol] + CCCO
[2]
Conditions	mass density, 293.15 K [kg/m3]	mass density, 298.15 K [kg/m3]	viscosity, 293.15 K [mPa·s]	viscosity, 298.15 K [mPa·s]
x2 = 0	814.6	811	4.029	3.494
x2 = 0.0959	813.7	810.1	3.825	3.325
x2 = 0.2143	812.8	809.1	3.584	3.126
x2 = 0.2969	812	808.4	3.446	3.008
x2 = 0.4097	810.9	807.2	3.214	2.828
x2 = 0.5053	809.9	806.2	3.072	2.695
x2 = 0.5963	809	805.2	2.908	2.537
x2 = 0.6924	807.8	804	2.758	2.402
x2 = 0.7892	806.6	802.8	2.582	2.283
x2 = 0.8797	805.4	801.5	2.442	2.126

CCCO [propan-1-ol] + CCCCCCCCCCCO
[2], x1 = 1
Conditions	mass density [kg/m3]	viscosity [mPa·s]
293.15 K	803.5	2.272
298.15 K	799.6	1.966

CCCO [propan-1-ol] + CCCCCCCCCO
[2], x1 = 1
Conditions	mass density [kg/m3]	viscosity [mPa·s]
293.15 K	803.5	2.272
298.15 K	799.6	1.966

CCCO [propan-1-ol] + CCCCCCCO
[2], x1 = 1
Conditions	mass density [kg/m3]	viscosity [mPa·s]
293.15 K	803.5	2.272
298.15 K	799.6	1.966

CCCO [propan-1-ol] + CCCCCO
[2], x1 = 1
Conditions	mass density [kg/m3]	viscosity [mPa·s]
293.15 K	803.5	2.272
298.15 K	799.6	1.966
